Reference: ChEMBL document CHEMBL3774345, “Synthesis of new diarylamides with pyrimidinyl pyridine scaffold and evaluation of their anti-proliferative effect on cancer cell lines” (Bioorg Med Chem Lett, 2016)

Columns and labels:
[1] = Cytotoxicity against human DU145 cells assessed as cell growth at 10^-8 M after 24 hrs by SRB assay; assay type: functional; details: DU-145, 24 h, read-out: Activity
[2] = test system: NCI-H460; experiment: Cytotoxicity against human NCI-H460 cells assessed as cell growth at 10^-7 M after 24 hrs by SRB assay; assay type: functional; details: NCI-H460, 24 h, read-out: Activity
[3] = test system: HT-29; experiment: Cytotoxicity against human HT-29 cells assessed as cell growth at 10 uM after 24 hrs by SRB assay; assay type: functional; details: HT-29, 24 h, read-out: Activity
[4] = test system: KM12; experiment: Cytotoxicity against human KM12 cells assessed as cell growth at 10 uM after 24 hrs by SRB assay; assay type: functional; details: KM12, 24 h, read-out: Activity
[5] = Cytotoxicity against human SF295 cells assessed as cell growth at 10 uM after 24 hrs by SRB assay; assay type: functional; details: SF-295, 24 h, read-out: Activity
[6] = Cytotoxicity against human SF539 cells assessed as cell growth at 10 uM after 24 hrs by SRB assay; assay type: functional; details: SF-539, 24 h, read-out: Activity
[7] = test system: U-251; experiment: Cytotoxicity against human U251 cells assessed as cell growth at 10 uM after 24 hrs by SRB assay; assay type: functional; details: U-251, 24 h, read-out: Activity
[8] = test system: Malme-3M; experiment: Cytotoxicity against human MALME-3M cells assessed as cell growth at 10 uM after 24 hrs by SRB assay; assay type: functional; details: read-out: Activity
[9] = test system: M14; experiment: Cytotoxicity against human M14 cells assessed as cell growth at 10 uM after 24 hrs by SRB assay; assay type: functional; details: M14, 24 h, read-out: Activity
[10] = test system: MDA-MB-435; experiment: Cytotoxicity against human MDA-MB-435 cells assessed as cell growth at 10 uM after 24 hrs by SRB assay; assay type: functional; details: MDA-MB-435, 24 h, read-out: Activity
[11] = Cytotoxicity against human OVCAR8 cells assessed as cell growth at 10 uM after 24 hrs by SRB assay; assay type: functional; details: OVCAR-8, 24 h, read-out: Activity
[12] = Cytotoxicity against human NCI-ADR-RES cells assessed as cell growth at 10 uM after 24 hrs by SRB assay; assay type: functional; details: read-out: Activity
[13] = test system: ACHN; experiment: Cytotoxicity against human ACHN cells assessed as cell growth at 10 uM after 24 hrs by SRB assay; assay type: functional; details: read-out: Activity
[14] = test system: SN12C; experiment: Cytotoxicity against human SN12C cells assessed as cell growth at 10 uM after 24 hrs by SRB assay; assay type: functional; details: read-out: Activity
[15] = Cytotoxicity against human TK10 cells assessed as cell growth at 10 uM after 24 hrs by SRB assay; assay type: functional; details: TK-10, 24 h, read-out: Activity
[16] = Cytotoxicity against human UO31 cells assessed as cell growth at 10 uM after 24 hrs by SRB assay; assay type: functional; details: UO-31, 24 h, read-out: Activity
[17] = Cytotoxicity against human DU145 cells assessed as cell growth at 10 uM after 24 hrs by SRB assay; assay type: functional; details: DU-145, 24 h, read-out: Activity
[18] = test system: MDA-MB-468; experiment: Cytotoxicity against human MDA-MB-468 cells assessed as cell growth at 10 uM after 24 hrs by SRB assay; assay type: functional; details: MDA-MB-468, 24 h, read-out: Activity
[19] = Cytotoxicity against human NCI60 cells assessed as growth inhibition at 10 uM after 24 hrs by SRB assay; assay type: functional; details: NCI60, 24 h
[20] = Cytotoxicity against human HL-60(TB) cells assessed as cell growth at 10 uM after 24 hrs by SRB assay; assay type: functional; details: HL-60, 24 h, read-out: Activity
[21] = Cytotoxicity against human MOLT4 cells assessed as cell growth at 10 uM after 24 hrs by SRB assay; assay type: functional; details: MOLT-4, 24 h, read-out: Activity
[22] = test system: SR; experiment: Cytotoxicity against human SR cells assessed as cell growth at 10 uM after 24 hrs by SRB assay; assay type: functional; details: read-out: Activity
[23] = test system: NCI-H23; experiment: Cytotoxicity against human NCI-H23 cells assessed as cell growth at 10 uM after 24 hrs by SRB assay; assay type: functional; details: NCI-H23, 24 h, read-out: Activity
[24] = test system: MDA-MB-435; experiment: Cytotoxicity against human MDA-MB-435 cells after 24 hrs by SRB assay; assay type: functional, cell-based; details: MDA-MB-435, 24 h
[25] = test system: A549; experiment: Cytotoxicity against human A549 cells assessed as cell growth at 10^-6 M after 24 hrs by SRB assay; assay type: functional; details: A549, 24 h, read-out: Activity
[26] = test system: T47D; experiment: Cytotoxicity against human T47D cells after 24 hrs by SRB assay; assay type: functional
[27] = Cytotoxicity against human LOXIMVI cells assessed as cell growth at 10^-8 M after 24 hrs by SRB assay; assay type: functional; details: LOX IMVI, read-out: Activity
[28] = Cytotoxicity against human OVCAR3 cells assessed as cell growth at 10^-8 M after 24 hrs by SRB assay; assay type: functional; details: OVCAR-3, 24 h, read-out: Activity
[29] = read-out: LC50 (the source's name)
[30] = read-out: pLC50 (the source's name) (converted)

Q: What does the source list for `O=C(Nc1cc(-c2cccnc2)nc(NCCCN2CCOCC2)n1)c1cc(Br)cc(C(F)(F)F)c1`?
A: growth at 0.01 µM [1]: 103%; growth at 0.1 µM [2]: 100%; growth at 10 µM [3]: 8.99%; growth at 10 µM [4]: 80%; growth at 10 µM [5]: -22.8%; growth at 10 µM [6]: 66.5%; growth at 10 µM [7]: 33.1%; growth at 10 µM [8]: -7.83%; growth at 10 µM [9]: -72.1%; growth at 10 µM [10]: 9.55%; growth at 10 µM [11]: 58.5%; growth at 10 µM [12]: 56.6%; growth at 10 µM [13]: 75.6%; growth at 10 µM [14]: 67.2%; growth at 10 µM [15]: 65.4%; growth at 10 µM [16]: 42%; growth at 10 µM [17]: 82.5%; growth at 10 µM [18]: 52.8%; inhibition at 10 µM [19]: 57.2%; growth at 10 µM [20]: 48.5%; growth at 10 µM [21]: 45.1%; growth at 10 µM [22]: 4.25%; growth at 10 µM [23]: 80.9%; IC50 [24]: 1.66 µM; GI50 ([24]; read-out: GI50): 1.66 µM; CC50 [24, 29]: 5.98 µM; TGI ([24]; read-out: TGI): 3.15 µM; GI50 ([24]; read-out: pGI50 (converted)): 1.66 µM; CC50 [24, 30]: 6.03 µM; TGI ([24]; read-out: pTGI (converted)): 3.16 µM; growth at 1 µM [25]: 119%; GI50 ([26]; read-out: GI50): 3.72 µM; CC50 [26, 29]: 48.5 µM; TGI ([26]; read-out: TGI): 16.1 µM; GI50 ([26]; read-out: pGI50 (converted)): 3.72 µM; CC50 [26, 30]: 49 µM; TGI ([26]; read-out: pTGI (converted)): 16.2 µM; growth at 0.01 µM [27]: 93%; growth at 0.01 µM [28]: 105%
